# Assay results taken from patent US4048299A, “Anticaries confectionaries and oral health products” (William Wrigley, Jr. Co., priority 1970, dated 1977).
# How the values were obtained:
# oral microorganisms = experiment: Comparison of activity against oral microorganisms in vitro; settings: in words, summary of tables
# Procedure: Two types of in vitro evaluations of the anticaries agents of this invention were conducted. […] The data was compiled through well-known broth tube analysis techniques.
# [1] = test system: Lactobacillus casei and Streptococcus sp. FA-1; experiment: Acid-production inhibition by broth-tube assay, 0.1 percent of compound; format: cell-based; settings: Table XII; 0.1% of compound
# Procedure: ^(a) Activity was measured by broth-tube assay to determine percent
# (§1) acid-production inhibition obtained by Lactobacillus casei and
# Streptococcus sp. FA-1 in the presence of 0.1 percent of compound.
# ^(a) Activity was measured by broth-tube assay to determine percent o
# as §1
# Streptococcus sp. FA-1 in the presence of 0.1% of compound. Symbols
# [2] = test system: Lactobacillus casei ATCC 4646; experiment: Acid production inhibition by aldehydes in product vehicles, broth-tube technique; format: cell-based; settings: 1 to 5 percent aldehyde
# Procedure: (§2) Other in vitro evaluations utilized a broth tube analysis of representative anticaries aldehydes incorporated in the vehicles of this invention against cultures of acid producing microorganisms normally present in the mouth. Standard laboratory procedures were utilized throughout to evaluate the acid production inhibition and growth inhibition over the incubation time of up to 24 hours.
# (§3) (a)Measured by broth-tube technique.
# (§4) In formulating Tables XIII - XIX representative aldehydes having anticaries activity were selected from those tested as summarized in Tables I - XII and incorporated in seven representative types of products. The products included dextrose and sucrose syrups, obtained commercially in food grades, and compressed candy, hard candy, mouthwash, toothpaste and toothpowder. The five latter products also employed food grade and reagent grade ingredients. These products were formulated by well-known and representative recipes for each type of product. The products were formed in batches of approximately 1 pound or 1 liter and contained all their normal constitutents. Aliquots of each products were blended with one of each of the representative aldehydes selected except in the case of hard candy.
# (§5) Aliquots of the aldehyde incorporating sugar syrups, confectioneries, and mouthwash formulations were added directly to assay flasks and mixed or dissolved as required. Aqueous extracts of the aldehyde incorporated in toothpaste and toothpowder were prepared and aliquots of the filtrate were added to the assay flasks.
# (§6) The assay flasks contained the necessary components for a normal growth response from the organisms employed, Lactobacillus casei ATCC 4646, originally a human oral isolate, Streptococcus spp. K1-R, human caries isolate, and a mixed oral microbial population obtained fresh from saliva on the morning prior to the initiation of each assay incubation period. The assay flask medium was dissolved in distilled water in which was added an equal volume of filter sterilized human saliva to yield a 50 percent saliva-medium combination. The medium contained all normal ingredients such as yeast extract, proteose peptone number 3 (a proprietary formula of Difco Laboratories, Detroit, Michigan) monopotassium phosphate, Tween 80 (polyoxethylene sorbitan monoleate) and water, except a carbon source. This was supplied by the aliquot of the sucrose syrup, dextrose syrup, sucrose in the compressed candy tablet and sucrose in the hard candy product. In addition, an aliquot of sucrose solution concentrate was added to the assay flask as a carbon source for evaluation of mouthwash, toothpaste, and toothpowder vehicles.
# (§7) The lower aldehydes such as glycolaldehyde, crystalline dimer; pyruvaldehyde, aqueous syrup; d,1-glyceraldehyde solution and crystalline dimer; and glutaraldehyde, employed as a 50 percent aqueous solution, are water soluble and were employed directly either as powders or aqueous solutions. The C8 to C12, longer chain aliphatic aldehydes, of which decyl and dodecyl (lauric) were selected as representative, are oil soluble and are prepared and added to the products as emulsions with four parts of Tween 20, polyoxethylene sorbitan monolaurate. The aldehyde concentrations in the products were randomly chosen between 1 to 5 percent by weight. Limits for the concentrations were selected to coincide with the data presented in Tables I - XII in order to verify that the anticaries activity of the aldehydes in the product vehicles tested was equivalent to the activity previously established for the aldehydes alone.
# [3] = test system: Mixed human oral microorganisms; experiment: as above; format: cell-based; settings: 1 to 5 percent aldehyde
# Procedure: as §2, §3, §4, §5, §6, §7
# Streptococcus spp. KI-R [4] = experiment: as above; format: cell-based; settings: 1 to 5 percent aldehyde
# Procedure: as §2, §3, §4, §5, §6, §7
# [5] = test system: Lactobacillus casei ATCC 4646; experiment: Growth inhibition by aldehydes in product vehicles, pour-plate technique; format: cell-based; settings: 1 to 5 percent aldehyde
# Procedure: as §2
# (§8) (b)Measured by pour-plate technique.
# as §4, §5, §6, §7
# [6] = test system: Mixed human oral microorganisms; experiment: as above; format: cell-based; settings: 1 to 5 percent aldehyde
# Procedure: as §2, §8, §4, §5, §6, §7
# Streptococcus spp. KI-R [7] = experiment: as above; format: cell-based; settings: 1 to 5 percent aldehyde
# Procedure: as §2, §8, §4, §5, §6, §7
# [8] = in compressed candy tablet, 2 h incubation
# [9] = in compressed candy tablet, 5 h incubation
# [10] = in compressed candy tablet, 24 h incubation
# [11] = in dextrose syrup, 2 h incubation
# [12] = in dextrose syrup, 5 h incubation
# [13] = in dextrose syrup, 24 h incubation
# [14] = in sucrose syrup, 2 h incubation
# [15] = in sucrose syrup, 5 h incubation
# [16] = in sucrose syrup, 24 h incubation
# [17] = in tooth powder (aqueous extract), 2 h incubation
# [18] = in tooth powder (aqueous extract), 5 h incubation
# [19] = in tooth powder (aqueous extract), 24 h incubation
# [20] = in toothpaste (aqueous extract), 2 h incubation
# [21] = in toothpaste (aqueous extract), 5 h incubation
# [22] = in toothpaste (aqueous extract), 24 h incubation
structure (smiles),measurement,setting,value
CC(O)C=O (stereo not drawn) [α-Hydroxypropionaldehyde],Anticaries activity in vitro,oral microorganisms,excellent anticaries activity
O=CCCCC=O [Glutaraldehyde],"Activity, Acid-Production Inhibition, %",[1],++++ (99 to 100)
same,Acid Production Inhibition,[2]; [8],0 Per Cent
same,Acid Production Inhibition,[2]; [9],33 Per Cent
same,Acid Production Inhibition,[2]; [10],81 Per Cent
same,Acid Production Inhibition,[2]; [11],76 Per Cent
same,Acid Production Inhibition,[2]; [12],70 Per Cent
same,Acid Production Inhibition,[2]; [13],29 Per Cent
same,Acid Production Inhibition,[2]; [14],100 Per cent
same,Acid Production Inhibition,[2]; [15],75 Per cent
same,Acid Production Inhibition,[2]; [16],50 Per cent
same,Acid Production Inhibition,[2]; [17],0 Per cent
same,Acid Production Inhibition,[2]; [18],33 Per cent
same,Acid Production Inhibition,[2]; [19],21 Per cent
same,Acid Production Inhibition,[2]; [20],80 Per cent
same,Acid Production Inhibition,[2]; [21],80 Per cent
same,Acid Production Inhibition,[2]; [22],50 Per cent
same,Acid Production Inhibition,[3]; [8],100 Per Cent
same,Acid Production Inhibition,[3]; [9],100 Per Cent
same,Acid Production Inhibition,[3]; [10],0 Per Cent
same,Acid Production Inhibition,[3]; [11],23 Per Cent
same,Acid Production Inhibition,[3]; [12],81 Per Cent
same,Acid Production Inhibition,[3]; [13],16 Per Cent
same,Acid Production Inhibition,"[3]; in mouthwash, 2 h incubation",0 Per cent
same,Acid Production Inhibition,"[3]; in mouthwash, 5 h incubation",100 Per cent
same,Acid Production Inhibition,"[3]; in mouthwash, 24 h incubation",91 Per cent
same,Acid Production Inhibition,[3]; [14],100 Per cent
same,Acid Production Inhibition,[3]; [15],59 Per cent
same,Acid Production Inhibition,[3]; [16],0 Per cent
same,Acid Production Inhibition,[3]; [17],67 Per cent
same,Acid Production Inhibition,[3]; [18],95 Per cent
same,Acid Production Inhibition,[3]; [19],45 Per cent
same,Acid Production Inhibition,[3]; [20],0 Per cent
same,Acid Production Inhibition,[3]; [21],0 Per cent
same,Acid Production Inhibition,[3]; [22],0 Per cent
same,Acid Production Inhibition,Streptococcus spp. KI-R [4]; [8],100 Per Cent
same,Acid Production Inhibition,Streptococcus spp. KI-R [4]; [9],100 Per Cent
same,Acid Production Inhibition,Streptococcus spp. KI-R [4]; [10],100 Per Cent
same,Acid Production Inhibition,Streptococcus spp. KI-R [4]; [11],70 Per Cent
same,Acid Production Inhibition,Streptococcus spp. KI-R [4]; [12],93 Per Cent
same,Acid Production Inhibition,Streptococcus spp. KI-R [4]; [13],0 Per Cent
same,Acid Production Inhibition,"Streptococcus spp. KI-R [4]; in mouthwash, 2 h incubation",0 Per cent
same,Acid Production Inhibition,"Streptococcus spp. KI-R [4]; in mouthwash, 5 h incubation",0 Per cent
same,Acid Production Inhibition,"Streptococcus spp. KI-R [4]; in mouthwash, 24 h incubation",99 Per cent
same,Acid Production Inhibition,Streptococcus spp. KI-R [4]; [14],100 Per cent
same,Acid Production Inhibition,Streptococcus spp. KI-R [4]; [15],83 Per cent
same,Acid Production Inhibition,Streptococcus spp. KI-R [4]; [16],0 Per cent
same,Acid Production Inhibition,Streptococcus spp. KI-R [4]; [17],0 Per cent
same,Acid Production Inhibition,Streptococcus spp. KI-R [4]; [18],0 Per cent
same,Acid Production Inhibition,Streptococcus spp. KI-R [4]; [19],0 Per cent
same,Acid Production Inhibition,Streptococcus spp. KI-R [4]; [20],100 Per cent
same,Acid Production Inhibition,Streptococcus spp. KI-R [4]; [21],100 Per cent
same,Acid Production Inhibition,Streptococcus spp. KI-R [4]; [22],84 Per cent
same,Growth Inhibition,[5]; [8],N.S.
same,Growth Inhibition,[5]; [9],N.S.
same,Growth Inhibition,[5]; [10],99.5 Per Cent
same,Growth Inhibition,[5]; [11],N.S.
same,Growth Inhibition,[5]; [12],N.S.
same,Growth Inhibition,[5]; [13],90 Per Cent
same,Growth Inhibition,[5]; [14],N.S.
same,Growth Inhibition,[5]; [15],N.S.
same,Growth Inhibition,[5]; [16],N.S.
same,Growth Inhibition,[5]; [17],N.S.
same,Growth Inhibition,[5]; [18],N.S.
same,Growth Inhibition,[5]; [19],N.S.
same,Growth Inhibition,[5]; [20],N.S.
same,Growth Inhibition,[5]; [21],N.S.
same,Growth Inhibition,[5]; [22],0 Per cent
same,Growth Inhibition,[6]; [8],97.3 Per Cent
same,Growth Inhibition,[6]; [9],99.8 Per Cent
same,Growth Inhibition,[6]; [10],N.S.
same,Growth Inhibition,[6]; [11],92.5 Per Cent
same,Growth Inhibition,[6]; [12],90 Per Cent
same,Growth Inhibition,[6]; [13],N.S.
same,Growth Inhibition,"[6]; in mouthwash, 2 h incubation",100 Per cent
same,Growth Inhibition,"[6]; in mouthwash, 5 h incubation",100 Per cent
same,Growth Inhibition,"[6]; in mouthwash, 24 h incubation",99.9 Per cent
same,Growth Inhibition,[6]; [14],90 Per cent
same,Growth Inhibition,[6]; [15],93 Per cent
same,Growth Inhibition,[6]; [16],N.S.
same,Growth Inhibition,[6]; [17],N.S.
same,Growth Inhibition,[6]; [18],96.6 Per cent
same,Growth Inhibition,[6]; [19],N.S.
same,Growth Inhibition,[6]; [20],0 Per cent
same,Growth Inhibition,[6]; [21],N.S.
same,Growth Inhibition,[6]; [22],N.S.
same,Growth Inhibition,Streptococcus spp. KI-R [7]; [8],N.S.
same,Growth Inhibition,Streptococcus spp. KI-R [7]; [9],N.S.
same,Growth Inhibition,Streptococcus spp. KI-R [7]; [10],N.S.
same,Growth Inhibition,Streptococcus spp. KI-R [7]; [11],N.S.
same,Growth Inhibition,Streptococcus spp. KI-R [7]; [12],99.96 Per Cent
same,Growth Inhibition,Streptococcus spp. KI-R [7]; [13],0 Per Cent
same,Growth Inhibition,"Streptococcus spp. KI-R [7]; in mouthwash, 2 h incubation",100 Per cent
same,Growth Inhibition,"Streptococcus spp. KI-R [7]; in mouthwash, 5 h incubation",99.999 Per cent
same,Growth Inhibition,"Streptococcus spp. KI-R [7]; in mouthwash, 24 h incubation",100 Per cent
same,Growth Inhibition,Streptococcus spp. KI-R [7]; [14],N.S.
same,Growth Inhibition,Streptococcus spp. KI-R [7]; [15],> 99 Per cent
same,Growth Inhibition,Streptococcus spp. KI-R [7]; [16],90 Per cent
same,Growth Inhibition,Streptococcus spp. KI-R [7]; [17],N.S.
same,Growth Inhibition,Streptococcus spp. KI-R [7]; [18],N.S.
same,Growth Inhibition,Streptococcus spp. KI-R [7]; [19],N.S.
same,Growth Inhibition,Streptococcus spp. KI-R [7]; [20],N.S.
same,Growth Inhibition,Streptococcus spp. KI-R [7]; [21],N.S.
same,Growth Inhibition,Streptococcus spp. KI-R [7]; [22],N.S.
same,Solubility,,water soluble
